1 compound from patent US20240358681A1, “METHODS OF USE OF PPAR AGONIST COMPOUNDS AND PHARMACEUTICAL COMPOSITIONS THEREOF” (Mitobridge, Inc., priority 2021, published 2024) can be followed below.

Series [1] in a line: Tissue exposure in skeletal muscle (gastrocnemius) of aged DIO mice. The series is classed as in vivo, mouse. Particulars: 30 mg/kg oral once daily, 5 weeks, FIG. 6A. The protocol:
(§1) All animal studies were performed in accordance with Charles River Laboratories animal welfare protocols. Male Diet-Induced Obese (DIO) C57BL/6NTac mice 28 weeks of age were fed a high fat diet. 20 mice were randomized based on bodyweight into two cohorts of 10 mice each. Five mice were assigned to each treatment group in each cohort (i) vehicle or (ii) Compound (I) at 30 mg/kg via (n=10 total animals per treatment). […] Mice were acclimatized to the treadmill room for one hour on days of training or endurance runs. After an initial 5 min exploration period the treadmill belt moved at 5 m/min for 10 min with the motivation grid intensity set to 0.46 mA. Mice required a few visits to the grid to learn to walk/run on the moving belt and avoid the electric grid shock. After two acclimatization periods the mice learned to avoid the electric grid and stay on the moving belt, with fewer visits to the electric grid. The maximum speed for the endurance run was capped at 16.5 m/min based on speed acclimation runs, which represents the speed at which 25% of animals are running in the top ⅔ of the treadmill at a 5° slope. The mice were considered exhausted if they stayed on the electric grid with no limbs on the treadmill belt for 10 seconds.
Before and after the exhaustion run, blood samples were obtained via a tail vein nick. […]

Series [2] is described as follows: 26-week rat GLP toxicity study. The format is in vivo.
Series [3] has as its system PPARδ target genes and FAO genes in quadriceps muscle. As to the kind of experiment: Gene expression analysis of quadriceps muscle in aged DIO mice. The series is classed as in vivo, mouse. Particulars: 30 mg/kg oral once daily, 5 weeks. On the procedure:
as §1
Before and after the exhaustion run, blood samples were obtained via a tail vein nick. At the end of the study (day 45) whole blood along with gastrocnemius and quadriceps skeletal muscles were collected following CO2 euthanasia.

A further series deals with LHON/Leigh cells. As to the kind of experiment: Mitochondrial fatty acid oxidation assay by high-resolution respirometry (palmitate-mediated OXPHOS). The series is classed as cell-based, human. Particulars: Leigh/LHON cell line, 24 hours treatment; FIG. 4B. The protocol:
LHON/Leigh cells were treated with DMSO or Compound (I) in complete media supplemented with 0.5 mM carnitine for 24 hours prior to assaying. Treated cells were trypsinized, collected in Krebs-Henseleit Buffer (KHB) and pelleted.
Palmitate-mediated OXPHOS was measured using an Oxygraph-2k (Oroboros Instruments). Cells (1×10^6) in KHB were loaded into each chamber with 250 μM BSA or BSA-conjugated palmitate. KHB was added to reach a final volume of 2 mL. Respiration was measured at 37° C. as previously described in Zhang, Z., et al., Primary respiratory chain disease causes tissue-specific dysregulation of the global transcriptome and nutrient-sensing signaling network. (1932-6203). Briefly, BSA and BSA-conjugated palmitate treated cells were analyzed simultaneously in two separate chambers. […]
Data were analyzed using DatLab6 software. […] Non-mitochondrial respiration was measured after addition of Rotenone and Antimycin A sequentially (ROX, residual oxygen consumption, background) and subtracted from maximal respiration values. […]

As for `Cc1cnc(-c2ccc(C(F)(F)F)cc2)n1Cc1ccccc1OCCC[C@@H](C)CC(=O)O` [Compound (I), (R)-3-Methyl-6-(2-((5-methyl-2-(4-(trifluoromethyl)phenyl)-1H-imidazol-1-yl)methyl)-phenoxy)hexanoic acid], the skeletal muscle exposure result in series [1] was “detectable and covered the mouse EC50”. Besides, in series [2], the “no observed adverse effect level (NOAEL)” value was “highest tested dose”. Also, the “Angptl4 expression increase in quadriceps muscle” value in series [3] (FIG. 5A) worked out at 3.5 fold. Also, the “Pdk4 expression increase in quadriceps muscle” value in series [3] (FIG. 5B) came out at 2.5 fold. Besides, in series [3] (FIG. 5C-5E), the “Acadvl expression (FAO gene)” value is “significantly increased”, the “Cpt1a expression (FAO gene)” value was “significantly increased” and the “Slc25a20 expression (FAO gene)” value is given as “significantly increased”. Besides, the “fatty acid-mediated OXPHOS” value in the series with LHON/Leigh cells was “significantly increased”.
